{"source": "patent US11252953B2", "about": "“Repellent and attractant composition for dichromatic animals” (The United States of America, Represented by the Secretary …, priority 2016, dated 2022)", "key": {"cottontail rabbits": {"test_system": "cottontail rabbits", "experiment": "Cottontail rabbit concentration-response feeding experiment", "assay_type": "in vivo, Sylvilagus audubonii Baird"}, "female common voles": {"test_system": "female common voles", "conditions": "wheat treated with 5% anthraquinone and chloroform; cited from earlier work"}, "American crows": {"test_system": "American crows", "conditions": "in vivo; cited from earlier work"}, "Canada geese": {"test_system": "Canada geese", "conditions": "range printed jointly for Canada geese and red-winged blackbirds; cited from earlier work"}, "brown rats": {"test_system": "brown rats", "conditions": "0.04% and 0.08% anthraquinone; control baits 0.01-0.03% cinnamon, green carrots; cited from earlier work"}, "[1]": {"test_system": "Richardson's ground squirrels", "experiment": "Richardson's ground squirrel concentration-response feeding experiment", "assay_type": "in vivo, Urocitellus richardsonii Sabine"}, "possums [2]": {"test_system": "possums", "conditions": "0.08% anthraquinone; cited from earlier work"}, "black rats": {"test_system": "black rats", "conditions": "0.1% and 0.25% anthraquinone; cited from earlier work"}, "common grackles": {"test_system": "common grackles", "conditions": "in vivo; cited from earlier work"}, "California voles": {"test_system": "California voles", "experiment": "California vole concentration-response feeding experiment", "assay_type": "in vivo, Microtus californicus Peale"}, "possums [3]": {"test_system": "possums", "conditions": "0.25% anthraquinone; cited from earlier work"}, "red-winged blackbirds": {"test_system": "red-winged blackbirds", "conditions": "range printed jointly for Canada geese and red-winged blackbirds; cited from earlier work"}, "wild boar": {"test_system": "wild boar", "conditions": "corn treated with 0.64% anthraquinone; cited from earlier work"}, "male common voles": {"test_system": "male common voles", "conditions": "wheat treated with 15% anthraquinone and chloroform; cited from earlier work"}, "deer mice": {"test_system": "deer mice", "experiment": "Deer mouse concentration-response feeding experiment", "assay_type": "in vivo, Peromyscus maniculatus Wagner"}, "male house mice": {"test_system": "male house mice", "conditions": "wheat treated with 15% anthraquinone and chloroform; cited from earlier work"}, "ring-necked pheasants": {"test_system": "ring-necked pheasants", "conditions": "in vivo; cited from earlier work"}, "[4]": {"test_system": "black-tailed prairie dogs", "conditions": "corn seeds treated with 0.5-4.0% anthraquinone; cited from earlier work"}}, "data": [{"smiles": "O=C1c2ccccc2C(=O)c2ccccc21", "note": "[anthraquinone, 9,10-anthraquinone]", "values": [{"measurement": "anthraquinone dosage for observed threshold repellency", "setting": "cottontail rabbits", "value": "149.9±28.1", "unit": "mg anthraquinone/kg BM"}, {"measurement": "repellency", "setting": "cottontail rabbits; oats treated with 4,790 ppm anthraquinone", "value": 68, "unit": "%"}, {"measurement": "repellency", "setting": "cottontail rabbits; oats treated with 10,300 ppm anthraquinone", "value": 75, "unit": "%"}, {"measurement": "feeding repellency", "setting": "cottontail rabbits; whole oats treated with 0.5-2.0% anthraquinone (target; actual 4,790-19,600 ppm)", "value": "68-85%"}, {"measurement": "feeding repellency", "setting": "cottontail rabbits; whole oats treated with 19,600 ppm anthraquinone (target 2.0%)", "value": 85, "unit": "%"}, {"measurement": "less treated wheat consumed than wheat treated only with chloroform", "setting": "female common voles", "value": 47, "unit": "%"}, {"measurement": "predicted threshold concentration", "setting": "American crows", "value": "5,200 ppm"}, {"measurement": "predicted threshold concentration", "setting": "Canada geese", "value": "1,450-1,475 ppm"}, {"measurement": "consumption of anthraquinone-treated baits relative to control baits", "setting": "brown rats", "value": "less"}, {"measurement": "feeding repellency", "setting": "[1]; whole oats treated with 0.5-2.0% anthraquinone (target; actual 5,380-18,500 ppm)", "value": "40-56%"}, {"measurement": "repellency", "setting": "[1]; whole oats treated with 18,500 ppm anthraquinone", "value": 56, "unit": "%"}, {"measurement": "consumption of anthraquinone-treated baits relative to control baits", "setting": "possums [2]", "value": "no different"}, {"measurement": "response to anthraquinone-treated baits", "setting": "black rats", "value": "aversion"}, {"measurement": "predicted threshold concentration", "setting": "common grackles", "value": "9,200 ppm"}, {"measurement": "anthraquinone dosage for observed threshold repellency", "setting": "California voles; at 18,300 ppm anthraquinone (84% repellency), mean vole BM=38.1 g", "value": "365.0±103.1", "unit": "mg anthraquinone/kg BM"}, {"measurement": "threshold concentration", "setting": "California voles; can effectively repel voles from treated food", "value": "1.3 % (wt/wt)"}, {"measurement": "predicted threshold concentration", "setting": "California voles; concentration needed to achieve 80% feeding repellency, non-linear regression, treated oats", "value": "about 13,400 ppm"}, {"measurement": "repellency", "setting": "California voles; whole oats treated with 0.25-2.0% anthraquinone (target, wt/wt; actual 2,050-18,300 ppm), test consumption (day 4) relative to pre-test consumption", "value": "24-84%"}, {"measurement": "repellency", "setting": "California voles; whole oats treated with 18,300 ppm anthraquinone", "value": 84, "unit": "%"}, {"measurement": "response to anthraquinone-treated baits", "setting": "possums [3]", "value": "aversion"}, {"measurement": "predicted threshold concentration", "setting": "red-winged blackbirds", "value": "1,450-1,475 ppm"}, {"measurement": "less treated corn consumed than untreated corn", "setting": "wild boar", "value": 86.5, "unit": "%"}, {"measurement": "consumption of treated wheat relative to wheat treated only with chloroform", "setting": "male common voles", "value": "no difference"}, {"measurement": "repellency", "setting": "deer mice; whole oats treated with 0.25-2.0% anthraquinone (target; actual 2,820-19,900 ppm)", "value": "19-52%"}, {"measurement": "repellency", "setting": "deer mice; whole oats treated with 10,800 ppm anthraquinone", "value": 52, "unit": "%"}, {"measurement": "consumption of treated wheat relative to wheat treated only with chloroform", "setting": "male house mice", "value": "greater consumption"}, {"measurement": "predicted threshold concentration", "setting": "ring-necked pheasants", "value": "10,450 ppm"}, {"measurement": "repellency", "setting": "[4]", "value": "24-37%"}]}]}
